Experiments:
[1] = biological target: T1, Muscarinic acetylcholine receptor (Rattus norvegicus) (UniProt P08482+P08483+P08485+P08911+P10980); test: Binding affinity towards muscarinic receptor using [3H]cis-methyldioxolane (CMD) to label agonist sites in membrane preparations from rat neocortex at 100 nM; type: tissue-based
[2] = biological target: T1, Muscarinic acetylcholine receptor (Rattus norvegicus); test: Binding affinity towards muscarinic receptor using [3H]quinuclidinyl benzilate (QNB) to label antagonist sites in membrane preparations from rat neocortex at 100 nM
[3] = biological target: T1, Muscarinic acetylcholine receptor (Rattus norvegicus); test: Ratio of QNB/CMD binding affinities to predict agonistic efficacy at muscarinic receptor; type: protein assay
[4] = biological target: Muscarinic acetylcholine receptor; test: Binding affinity towards muscarinic receptor using [3H]quinuclidinyl benzilate (QNB) to label antagonist sites in membrane preparations from rat neocortex
[5] = biological target: Muscarinic acetylcholine receptor; test: Binding affinity towards muscarinic receptor using [3H]cis-methyldioxolane (CMD) to label agonist sites in membrane preparations from rat neocortex; type: tissue-based
[6] = biological target: T1, Muscarinic acetylcholine receptor (Rattus norvegicus); test: Binding affinity towards muscarinic receptor using [3H]cis-methyldioxolane (CMD) to label agonist sites in membrane preparations from rat neocortex at 1 uM; type: tissue-based
[7] = biological target: T2, Muscarinic acetylcholine receptor M2 (Homo sapiens) (UniProt P08172); test: Inhibitory activity against forskolin-stimulated accumulation of cyclic adenosine monophosphate (cAMP) in CHO cells expressing human m2 receptor (max. concentration. 1 mM); type: functional, cell-based
T2 sequence (whole entry): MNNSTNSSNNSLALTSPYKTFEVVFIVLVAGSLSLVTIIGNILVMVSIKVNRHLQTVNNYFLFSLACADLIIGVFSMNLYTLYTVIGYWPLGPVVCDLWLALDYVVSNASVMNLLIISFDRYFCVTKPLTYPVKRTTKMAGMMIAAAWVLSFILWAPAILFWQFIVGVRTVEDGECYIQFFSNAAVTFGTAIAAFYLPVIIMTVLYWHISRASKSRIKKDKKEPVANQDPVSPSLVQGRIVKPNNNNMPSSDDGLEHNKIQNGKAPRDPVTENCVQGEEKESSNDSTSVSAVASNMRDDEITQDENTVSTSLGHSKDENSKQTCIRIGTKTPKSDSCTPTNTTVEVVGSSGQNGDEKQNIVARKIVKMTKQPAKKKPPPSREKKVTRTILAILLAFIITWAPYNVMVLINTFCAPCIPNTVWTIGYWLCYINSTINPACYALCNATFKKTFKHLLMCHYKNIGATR

[8] = biological target: T3, Muscarinic acetylcholine receptor M5 (Homo sapiens) (UniProt P08912); test: Ability to stimulate inositol phosphate(PI) accumulation in CHO cells expressing human m5 receptor (max. concentration. 100 uM); type: functional, cell-based
T3 sequence (whole entry): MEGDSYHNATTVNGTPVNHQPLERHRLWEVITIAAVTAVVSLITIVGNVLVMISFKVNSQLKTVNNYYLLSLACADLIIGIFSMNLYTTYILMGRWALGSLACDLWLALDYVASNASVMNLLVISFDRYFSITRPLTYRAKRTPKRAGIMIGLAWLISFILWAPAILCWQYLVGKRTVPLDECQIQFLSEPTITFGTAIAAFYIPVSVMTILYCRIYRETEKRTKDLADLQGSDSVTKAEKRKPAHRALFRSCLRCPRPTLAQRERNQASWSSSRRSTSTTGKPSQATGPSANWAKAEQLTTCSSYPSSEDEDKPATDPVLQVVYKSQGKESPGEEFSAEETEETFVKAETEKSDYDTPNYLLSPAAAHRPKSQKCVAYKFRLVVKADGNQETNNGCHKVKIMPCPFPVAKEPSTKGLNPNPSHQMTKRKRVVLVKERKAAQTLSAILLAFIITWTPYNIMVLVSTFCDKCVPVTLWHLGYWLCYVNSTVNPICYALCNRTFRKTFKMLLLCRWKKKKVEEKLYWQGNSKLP

[9] = biological target: T4, Muscarinic acetylcholine receptor M4 (Homo sapiens) (UniProt P08173); test: Inhibitory activity against forskolin-stimulated accumulation of cyclic adenosine monophosphate (cAMP) in CHO cells expressing human m4 receptor (max. concentration. 1 mM); type: functional, cell-based
T4 sequence (whole entry): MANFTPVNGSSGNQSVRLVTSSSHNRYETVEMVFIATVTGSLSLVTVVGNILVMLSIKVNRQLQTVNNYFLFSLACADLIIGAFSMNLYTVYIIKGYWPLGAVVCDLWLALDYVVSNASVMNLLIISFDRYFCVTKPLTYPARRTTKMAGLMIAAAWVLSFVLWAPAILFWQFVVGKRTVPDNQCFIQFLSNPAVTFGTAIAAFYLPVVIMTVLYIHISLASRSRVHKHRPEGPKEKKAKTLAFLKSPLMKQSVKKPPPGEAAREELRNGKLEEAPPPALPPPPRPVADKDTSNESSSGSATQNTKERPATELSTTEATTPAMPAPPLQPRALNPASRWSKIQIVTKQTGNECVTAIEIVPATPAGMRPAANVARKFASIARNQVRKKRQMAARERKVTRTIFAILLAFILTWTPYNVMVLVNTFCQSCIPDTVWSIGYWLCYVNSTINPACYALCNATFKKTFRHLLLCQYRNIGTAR

Cc1ccccc1C#CCO/N=C1\CN2CCC1C2 (stereo not given)
inhibition [1]: 82% | inhibition [2]: 56%

FC(F)(F)c1cccc(C#CCO/N=C2\CN3CCC2C3)c1 (stereo not given)
Ratio [3]: 134 | IC50 [4]: 4237 nM | IC50 [5]: 32 nM

COc1ccccc1C#CCO/N=C1\CN2CCC1C2 (stereo not given)
Ratio [3]: 81 | IC50 [4]: 17658 nM | IC50 [5]: 219 nM

Fc1ccccc1C#CCO/N=C1\CN2CCC1C2 (stereo not given)
Ratio [3]: 159 | IC50 [4]: 4443 nM | IC50 [5]: 28 nM

C(#Cc1ccc2c(c1)OCCO2)CO/N=C1\CN2CCC1C2 (stereo not given)
inhibition [6]: 39% | inhibition [2]: 0%

Clc1cccc(C#CCO/N=C2\CN3CCC2C3)c1 (stereo not given)
Ratio [3]: 202 | IC50 [4]: 3882 nM | IC50 [5]: 19 nM

Fc1ccc(C#CCO/N=C2\CN3CCC2C3)cc1 (stereo not given)
Ratio [3]: 204 | IC50 [4]: 6092 nM | IC50 [5]: 30 nM

COc1ccc(C#CCO/N=C2\CN3CCC2C3)cc1 (stereo not given)
Ratio [3]: 119 | IC50 [4]: 13101 nM | IC50 [5]: 110 nM

COc1ccc(C#CCO/N=C2\CN3CCC2C3)cc1OC (stereo not given)
Ratio [3]: 303 | IC50 [4]: 42449 nM | IC50 [5]: 140 nM

Clc1ccccc1C#CCO/N=C1\CN2CCC1C2 (stereo not given)
Ratio [3]: 107 | IC50 [4]: 1305 nM | IC50 [5]: 12 nM

Cc1ccc(C#CCO/N=C2\CN3CCC2C3)cc1 (stereo not given)
Ratio [3]: 125 | IC50 [4]: 11089 nM | IC50 [5]: 89 nM

COc1cccc(C#CCO/N=C2\CN3CCC2C3)c1 (stereo not given)
inhibition [7]: 0% | PI [8]: 11% | inhibition [9]: 0% | Ratio [3]: 250 | IC50 [4]: 6927 nM | IC50 [5]: 28 nM

Clc1ccc(C#CCO/N=C2\CN3CCC2C3)cc1 (stereo not given)
Ratio [3]: 119 | IC50 [4]: 6300 nM | IC50 [5]: 53 nM

C[N+](C)(C)CCOC(N)=O
inhibition [7]: 58% | PI [8]: 100% | inhibition [9]: 60%

C(#Cc1ccc2c(c1)OCO2)CO/N=C1\CN2CCC1C2 (stereo not given)
Ratio [3]: 110 | IC50 [4]: 2547 nM | IC50 [5]: 23 nM

Cc1cccc(C#CCO/N=C2\CN3CCC2C3)c1 (stereo not given)
Ratio [3]: 186 | IC50 [4]: 5195 nM | IC50 [5]: 28 nM

Clc1cc(Cl)cc(C#CCO/N=C2\CN3CCC2C3)c1 (stereo not given)
inhibition [6]: 53% | inhibition [2]: 18%

FC(F)(F)c1cc(C#CCO/N=C2\CN3CCC2C3)cc(C(F)(F)F)c1 (stereo not given)
inhibition [6]: 55% | inhibition [2]: 18%

Fc1cccc(C#CCO/N=C2\CN3CCC2C3)c1 (stereo not given)
Ratio [3]: 132 | IC50 [4]: 4925 nM | IC50 [5]: 37 nM

O=[N+]([O-])c1cccc(C#CCO/N=C2\CN3CCC2C3)c1 (stereo not given)
Ratio [3]: 226 | IC50 [4]: 6399 nM | IC50 [5]: 28 nM

C(#Cc1ccccc1)CO/N=C1\CN2CCC1C2 (stereo not given)
inhibition [7]: 0% | PI [8]: 1% | inhibition [9]: 0% | Ratio [3]: 109 | IC50 [4]: 5012 nM | IC50 [5]: 46 nM
